Series [1] concerns Trypanosoma brucei rhodesiense. As to the kind of experiment: Antitrypanosomal activity against Trypanosoma brucei rhodesiense STIB900 bloodstream forms after 72 hrs by serial dilution Alamar blue assay. Particulars: STIB900, 72 h. Format: functional, organism-based.
Series [2] can be described thus: Selectivity index, ratio of IC50 for rat L6 cells to IC50 for Trypanosoma brucei rhodesiense STIB900. Format: toxicity, cell-based. To be noted: L6 cells (versus Trypanosoma brucei rhodesiense STIB900), read-out: Ratio IC50.
Another series concerns L6. Put plainly: Cytotoxicity against rat L6 cells. Type of series: cell-based.
The next series deals with Plasmodium falciparum. Put plainly: Antiplasmodial activity against chloroquine and pyrimethamine-resistant Plasmodium falciparum K1 assessed as [3H]hypoxanthine incorporation after 48 hrs by liquid scintillation counter. Format: functional, organism-based.
A short description of series [3]: Selectivity index, ratio of IC50 for rat L6 cells to IC50 for chloroquine and pyrimethamine-resistant Plasmodium falciparum K1. Type of series: toxicity, cell-based. Particulars: L6 cells (versus Plasmodium falciparum K1), read-out: Ratio IC50.
In series [4] the test system is Plasmodium berghei. Put plainly: Antimalarial activity against Plasmodium berghei ANKA infected in albino mouse assessed as inhibition of parasitemia at 30 to 50 mg/kg, ip administered as single dose post-infection measured after 24 hrs by Giemsa staining-based microscopy. Type of series: functional. Particulars: dose mg/kg 30-50; route intraperitoneal.
Series [5] deals with Plasmodium berghei. As to the kind of experiment: Antimalarial activity against Plasmodium berghei ANKA infected in albino mouse assessed as prolongation of survival time at 30 to 50 mg/kg, ip administered as single dose post infection (reference value: 6.7 days). Type of series: functional. Particulars: dose mg/kg 30-50; route intraperitoneal.
For series [6], the system named is Trypanosoma brucei brucei. Put plainly: […] activity against Trypanosoma brucei brucei STIB 795 infected in NMRI mouse assessed as reduction in parasitemia compound administered on day 3 and day 6 post infection measured after 24 hrs. Format: functional, organism-based.
Series [7] relates to Trypanosoma brucei brucei. As to the kind of experiment: […] activity against Trypanosoma brucei brucei STIB 795 infected in NMRI mouse assessed as reduction in parasitemia compound administered on day 3 and day 6 post infection measured on day 10. Format: functional, organism-based.

SMILES strings stand for the structures. Active and inactive are the calls of the source. The rule behind the calls is not given here.

As for `Nc1nc(N)nc(Nc2ccc([As]3SCC(CO)S3)cc2)n1` (stereo not drawn) [MELARSOPROL], the IC50 (commonly the concentration needed to halve the response being measured) in [1] is 9 nM. The selectivity ratio in series [2] was 1940.
In the case of `CN1CCN(CCCN2CCC3(N4CCCC4)CC(c4ccccc4)C2C(c2ccccc2)C3)CC1` (racemic), the IC50 stood at 6990 nM in series [1], 27400 nM with L6 and 270 nM in the series on Plasmodium falciparum. Also, the selectivity ratio was 3.93 in series [2] and 102 in series [3]. The “inhibition (INH)” value in the series on Plasmodium berghei [4] is given as 39%. The MST in the series on Plasmodium berghei [5] was determined as 7.7 days.
With `c1ccc(C2CC3(N4CCCCC4)CCN(CCCN4CCCCC4)C2C(c2ccccc2)C3)cc1` (stereo not drawn), in series [1], it took 18400 nM to reach half-maximal inhibition (IC50). Also, in series [2], the selectivity ratio was 7.5.
As for `CN1CCN(CCCN2CCC3(N4CCCCC4)CC(c4ccccc4)C2C(c2ccccc2)C3)CC1` (racemic), the IC50 in series [1] amounted to 17600 nM; in the series with L6, 62400 nM; in the series on Plasmodium falciparum, 110 nM. In addition, the selectivity ratio in series [2] was 3.55; in [3], 568.
As for `C[C@@H]1CC[C@H]2[C@@H](C)C(=O)O[C@@H]3O[C@@]4(C)CC[C@@H]1[C@]32OO4` [ARTEMISININ], the IC50 in the series on Plasmodium falciparum came to 6.4 nM.
`CN1CCN(C23CCNC(C(c4ccccc4)C2)C(c2ccccc2)C3)CC1` (racemic): the concentration for half-maximal inhibition (IC50) in series [1] amounted to 380 nM; in the series on L6 it was 96900 nM; in the series with Plasmodium falciparum it was 1500 nM. Besides, the results for the selectivity ratio in series [2] and in [3] were 255 and 64.6, respectively.
In the same order, the values of `CN1CCN(CCC(=O)N2CCC3(N4CCN(C)CC4)CC(c4ccccc4)C2C(c2ccccc2)C3)CC1` (racemic) are 3620 nM, 161000 nM, 1950 nM, 44.5 and 82.5.
In the same order, the values of `CN1CCN(CC(=O)NC2CC3(N4CCN(C)CC4)CC(c4ccccc4)C2C(c2ccccc2)C3)CC1` (racemic) are 2060 nM, 42100 nM, 620 nM, 20.4 and 67.9.
In the same order, the values of `CN1CCN(CCCN2CCC3(N4CCN(C)CC4)CC(c4ccccc4)C2C(c2ccccc2)C3)CC1` (racemic) are 6670 nM, 47800 nM, 250 nM, 7.16 and 191.
On to `CN1CCN(CCC(=O)NC2CC3(N4CCN(C)CC4)CC(c4ccccc4)C2C(c2ccccc2)C3)CC1` (racemic), for which the IC50 turned out to be 3300 nM in series [1], 67900 nM with L6 and 550 nM in the series with Plasmodium falciparum. Besides, the selectivity ratio in series [2] was 20.6; in [3], 123.
In the case of `CCN(CC)CCC(=O)OC1CC2(N(C)C)CC(c3ccccc3)C1C(c1ccccc1)C2` (stereo not drawn), the selectivity ratio stood at 215 in series [2] and 54.9 in [3].
Turning to `CN1CCN(CCCC(=O)OC2CC3(N4CCCC4)CC(c4ccccc4)C2C(c2ccccc2)C3)CC1` (racemic), the IC50 came out at 150 nM in series [1], 10200 nM in the series on L6 and 120 nM with Plasmodium falciparum. Also, the selectivity ratio in series [2] was determined as 67.7; in series [3] it was 84.7.
For the compound `CN1CCN(CCN2CCC3(N4CCCC4)CC(c4ccccc4)C2C(c2ccccc2)C3)CC1` (racemic), the IC50 in series [1] turned out to be 6350 nM; in the series on L6, 50300 nM; in the series with Plasmodium falciparum it was 23 nM. Further, the selectivity ratio in series [2] was found to be 7.93; in [3], 2190. Besides, in the series with Plasmodium berghei [4], the “inhibition (INH)” value is 39%. For the same compound, in the series with Plasmodium berghei [5], the MST stood at 8.3 days.
In the case of `CN1CCN(CCN2CCC3(N4CCCCC4)CC(c4ccccc4)C2C(c2ccccc2)C3)CC1` (racemic), the IC50 in series [1] is 43700 nM; in the series with L6, 127000 nM; with Plasmodium falciparum, 300 nM. In addition, the selectivity ratio in [2] is 2.91; in [3], 424.
As for `CN1CCN(CCC(=O)OC2CC3(N(C)C)CC(c4ccccc4)C2C(c2ccccc2)C3)CC1` (racemic), the 50% inhibitory concentration (IC50) was determined as 210 nM in series [1], 31100 nM with L6 and 460 nM in the series on Plasmodium falciparum. For the same compound, the results for the selectivity ratio in series [2] and in [3] were 148 and 67.7, respectively.
For `CN1CCN(CCCN2CCC3(N(C)C)CC(c4ccccc4)C2C(c2ccccc2)C3)CC1` (racemic), the IC50 came out at 11500 nM in series [1], 54500 nM in the series on L6 and 510 nM with Plasmodium falciparum. Moreover, the selectivity ratio in [2] worked out at 4.74; in series [3] it was 107.
Regarding `CN1CCN(CCCC(=O)OC2CC3(N(C)C)CC(c4ccccc4)C2C(c2ccccc2)C3)CC1` (racemic), the results for the IC50 (in series [1]; in the series on L6; with Plasmodium falciparum) were 80 nM, 19800 nM and 240 nM, respectively. The selectivity ratio is 248 in series [2] and 82.7 in [3].
For `CN1CCN(CCN2CCC3(N(C)C)CC(c4ccccc4)C2C(c2ccccc2)C3)CC1` (racemic), the IC50 is 13500 nM in series [1], 70300 nM in the series on L6 and 520 nM in the series on Plasmodium falciparum. Further, the values for the selectivity ratio in series [2] and in series [3] were 5.19 and 135, respectively.
Regarding `CN1CCN(CCCC(=O)OC2CC3(N4CCCCC4)CC(c4ccccc4)C2C(c2ccccc2)C3)CC1` (racemic), the IC50 in [1] was determined as 160 nM; in the series on L6, 22300 nM; with Plasmodium falciparum it was 50 nM. The selectivity ratio in series [2] turned out to be 139; in series [3] it was 446.
As to `CN1CCN(CCC(=O)OC2CC3(N4CCCC4)CC(c4ccccc4)C2C(c2ccccc2)C3)CC1` (racemic), the results for the IC50 (in series [1]; in the series with L6; with Plasmodium falciparum) were 450 nM, 21300 nM and 260 nM, respectively. Besides, the selectivity ratio in [2] was found to be 47.4; in [3], 82.
In the case of `CN1CCN(CCC(=O)OC2CC3(N4CCCCC4)CC(c4ccccc4)C2C(c2ccccc2)C3)CC1` (racemic), the IC50 in series [1] stood at 87 nM; in the series with L6 it was 23500 nM; in the series on Plasmodium falciparum it was 60 nM. For the same compound, the figures for the selectivity ratio in series [2] and in series [3] were 271 and 392, respectively. Besides, the result in series [6] and in [7] was Active.
